Data from patent US5939403A, “Keratan sulfate oligosaccharide fraction and pharmaceutical containing the same” (Seikagaku Corporation, priority 1994, dated 1999).

Experiments:
[1] = system: neutrophile of guinea pig; test: Inhibition of active oxygen (O2^-) generation in FMLP-stimulated neutrophile; format: cell-based, female Hartley guinea pigs
Method: To female Hartley guinea pigs of five weeks old (purchased from Japan SLC), 20 ml of the 0.2% aqueous solution of glycogen (Type II; Oyster; Sigma) dissolved in saline which was previously sterilized with autoclave, was intraperitoneally administered. The guinea pigs were sacrificed by bleeding 16 hours after the administration, and 20 ml of the saline containing heparin at a concentration of 10 U/ml was intraperitoneally injected to recover the peritoneal exudate. Hereinafter all the operations were carried out under ice-water cooling condition except for incubation. The recovered exudate was centrifuged at 1,000 rpm for 10 minutes, the precipitate obtained was hemolyzed with purified water for 30 seconds, and returned into isotonicity with the Hanks' solution at double the concentration (not containing phenol red; Nissui Seiyaku), and further it was centrifuged at 1,000 rpm for 10 minutes. The precipitate obtained was suspended in the Hanks' solution and centrifuged and the operations were repeated once more to give the neutrophile.
The collected neutrophile of the guinea pigs was suspended in the Hanks' solution, the number of leukocyte in the suspension was determined by a cytometer (System K-2000; Toa Iyo Denshi Co.), and the suspension diluted with the Hanks' solution to 2×10^6 cells/ml was used in the determination as the cell suspension. After mixing 1 ml of the cell suspension and 10 μl of the purified keratan sulfate oligosaccharide (keratan sulfate tetrasaccharide (I), the keratan sulfate pentasaccharide (II), or the keratan sulfate disaccharide (III)) prepared in Example 1 described above, and the mixture was preincubated at 37° C. for an hour. […]
The supernatant obtained by the centrifugation was separated and the absorbance thereof was determined at 550 nm to estimate the quantity of reducing cytochrome c per 2×10^6 cells after the 10 minutes incubation. The quantity of reducing cytochrome c increases with the generation of active oxygen (O2^-). […]

allergic conjunctivitis = test: TDI-induced allergic conjunctivitis model, eye dropping; format: in vivo, female Hartley guinea pigs; settings: 6.0 mg/ml eye drop, comparison of oligosaccharides
Method: A variety of the keratan sulfate oligosaccharide was dropped in the eyes of the guinea pigs subjected to the induction of allergic conjunctivitis to examine the effect thereof.
Toluene diisocyanate (hereinafter referred to as TDI) was diluted with ethyl acetate to a concentration of 10%. To the bilateral vestibule of noses of 10 female Hartley guinea pigs of from about 900 to 1,000 g weight, the 10% TDI (10 μl/animal) obtained above was applied once a day for five days to prepare the TDI sensitization models. The PBS solution of the purified keratan sulfate tetrasaccharide (I) ([…]) which was prepared in Example 1 was dropped in the left eyes of the TDI sensitization models, while PBS was dropped in the right eyes as the control. The dose of dropping was one drop (48+4.6 μl (S.D.)) each from the eye dropper. After 10 minutes, 6.5 μl of 10% TDI was dropped to the both eyes to induce conjunctivitis. After five minutes standing, furthermore, the PBS solution of the keratan sulfate tetrasaccharide (I) ([…]) was dropped in the left eyes, and PBS was dropped in the right eyes. After 15 minutes, observation of the both eyes were carried out. The degree of conjunctivitis was evaluated regarding three items of hyperemia, edema and lacrimation into four grades such as point 0, +1, +2 and +3. In the figure, * represents that it has the significant difference with p<0.05 (wherein "p" means a level of significance by the .chi.^2 test).
The PBS solution of the purified keratan sulfate disaccharide (III), the keratan sulfate tetrasaccharide (I), and the keratan sulfate pentasaccharide (II) (6.0 mg/ml, respectively)which were prepared in Example 1 described above as the test substances were dropped, respectively, in the left eyes of the TDI sensitization models of 10 animals a group each which were prepared in the same manner as in (1) described above, and PBS was dropped in the right eyes as the control. The degree of conjunctivitis was evaluated in the same manner as in (1) described above. In the figure, * represents that it has the significant difference with p<0.05 (wherein "p" means a level of significance by the .chi.^2 test).
The PBS solution containing the purified keratan sulfate tetrasaccharide (I) which was prepared in Example 1 described above, at varieties of concentrations (6 mg/ml, 3 mg/ml, 1.5 mg/ml or 0.75 mg/ml) as the test substance, were dropped, respectively, in the left eyes of the TDI sensitization models of 10 animals a group each which were prepared in the same manner as in (1) described above, and PBS was dropped in the right eyes as the control. The degree of conjunctivitis was evaluated in the same manner as in (1) described above. In the figure, * represents that it has the significant differnce with p<0.05 (wherein "p" means a level of significance by the .chi.^2 test).

papain-induced arthritis = test: Papain-induced unilateral arthritis model, intramuscular administration (volume of synovial fluid); format: in vivo, Japanese white rabbits (female); settings: 0.5 mg/kg intramuscular, unilateral model; 10 rabbits per group
Method: The anti-inflammatory effect of the keratan sulfate oligosaccharide with rabbits of the papain-induced arthritis model was examined using the volume of synovial fluid as an indication.
Seven days after the injection, the blood was drawn from the auricular artery, and plasma containing heparin was separated. After drawing the blood, the rabbits were anatomized and the both knee joint were separated. The articular cavity was washed with 2 ml of saline three times to recover the synovial fluid. The calcium concentrations in the plasma and the recovered synovial fluid were determined, and the volume of synovial fluid was calculated from the following formula.
Volume of Synovial Fluid (ul/articulation)=Amount of Calcium in Recovered
Synovial Fluid (μg/articulation)/Concentration of Calcium in Plasma
Into the articular cavity of left joint of Japanese white rabbits (female) of 3 kg weight, 150 μl of the saline solution of papain (1%) was injected, and the right joint was not treated to prepare the unilateral arthritis model. One day after injecting papain, 150 μl of the PBS solution of the purified keratan sulfate tetrasaccharide (I) (2%, 1%, and 0.5% solution; 1.0 mg/kg, 0.5 mg/kg, and 0.25 mg/kg, respectively) which was prepared in Example 1 was injected into the hip muscle of the left side (hereinafter referred to as "the keratan sulfate tetrasaccharide (I) administered group"). As the control, 150 μl of PBS was injected to the arthritis model instead of the PBS solution of the keratan sulfate tetrasaccharide (I) and hereinafter these rabbits are referred to as "the control group". And the normal rabbits not subjected to the papain injection (hereinafter referred to as "the normal group") were also examined in the same manner hereinafter. Seven days after the injection, the volume of synovial fluid was calculated in the same manner as in (1-1).
The examination was performed in the same manner as in (1-3) except for using 150 μl of the PBS solution of the purified keratan sulfate tetrasaccharide (I), the keratan sulfate pentasaccharide (II), and the keratan sulfate disaccharide (III) (1% solution; 0.5 mg/kg) which were prepared in Example 1. In the figure, *, **, and *** represent that they have the significant difference with p<0.05, p<0.01, and p<0.001, respectively. And in each group, 10 rabbits were used for the examination.

NeuAc~Galβ1-4GlcNAc(6S)β1-3Gal(6S)β1-4GlcNAc(6S) [keratan sulfate pentasaccharide (II)]
inhibitory function for generation of active oxygen (O2^-) (FIG. 10) [1]: slightly observed
degree of conjunctivitis: hyperemia, edema and lacrimation (FIG. 12) (allergic conjunctivitis): tended to show inhibition in all the items
quantity of synovial fluid (FIG. 5, result in words) (papain-induced arthritis): significantly less than that in the control group
